Laboratory results: patent publication US6982148B2, “Progressive elevated gene-3 (PEG-3) induces aggressive cancer phenotype and regulates angiogenesis” (The Trustees of Columbia University in the City of New York, priority 1999, dated 2006)

Columns and labels:
[1] = system: PEG-3; test: PEG-3 mRNA and transcription after DNA damage; type: cell-based, rat; conditions: following DNA damage
Text: The specific role of the gadd34/MyD116 gene in cellular physiology is not known. Like hamster gadd34 and its murine homologue MyD116, PEG-3 steady-state mRNA and RNA transcriptional levels are increased following DNA damage by methyl methanesulfonate (MMS) and gamma irradiation (γIR) (FIGS. 2 and 5 and data not shown). In contrast, nuclear run-on assays indicate that only the PEG-3 gene is transcriptionally active (transcribed) as a function of transformation progression (FIG. 5). This is apparent in CREF cells transformed by Ha-ras and in E11-NMT and various E11-NMT subclones either expressing or not expressing the progression phenotype (FIG. 5). The gadd34/MyD116 gene, as well as the gadd45, MyD118 and gadd153 genes, encode acidic proteins with very similar and unusual charge characteristics (24). PEG-3 also encodes a putative protein with acidic properties similar to the gadd and MyD genes (FIG. 3). The carboxyl-terminal domain of the murine MyD116 protein is homologous to the corresponding domain of the herpes simplex virus 1 γ134.5 protein, that prevents the premature shutoff of total protein synthesis in infected human cells (35,36). Replacement of the carboxyl-terminal domain of γ134.5 with the homologous region from MyD116 results in a restoration of function to the herpes viral genome, i.e., prevention of early host shutoff of protein synthesis (36). […]

[2] = system: VEGF; test: VEGF transcription and steady-state mRNA in E11 cells after transient PEG-3 transfection; type: cell-based, rat; conditions: added 4 hr after PEG-3 transfection of E11 cells
Procedure: Transfection of PEG-3 into E11 cells induces steady-state VEGF mRNA. E11 cells were transfected with a pZeoSV/PEG-3 or pZeo SV vector, 4 hr later replicate cultures received cycloheximide and 30 hr later total RNA was extracted and analyzed by Northern blotting for PEG-3, VEGF, Ad5 ElA and GAPDH mRNA expression.
Nucleic Acid Analyses. Steady-state levels of PEG-3, VEGF, ElA, and GAPHD mRNA were determined by Northern analysis of total cytoplasmic RNA using appropriate multiprimed ^32P-labeled cloned cDNA probes as described previously (18,19). Briefly, 10 μg of total RNA from the different cell types were electrophoresed in a 1% agarose gel, transferred to a nylon membrane and hybridized with the different ^32p-labeled CDNA fragments. The membrane was stripped and hybridized with indicated probes sequentially. […]
To examine further the relationship between PEG-3 and VEGF, experiments were performed to determined if transient ectopic expression of PEG-3 in rodent and human tumor cells could elevate VEGF expression. E11 cells were transfected with a PEG-3 expression construct, nuclei were isolated and evaluated for elevated VEGF transcription and total cytoplasmic RNA was isolated and steady-state VEGF mRNA levels were determined by Northern blotting (FIG. 8 and data not shown). […]

| Structure (SMILES) | PEG-3 steady-state mRNA and RNA transcriptional levels [1] | Effect on PEG-3 induced elevation of VEGF transcription and RNA [2] |
| --- | --- | --- |
| COS(C)(=O)=O [MMS, methyl methanesulfonate] | increased | – |
| C[C@@H]1C[C@@H]([C@H](O)CC2CC(=O)NC(=O)C2)C(=O)[C@@H](C)C1 [cycloheximide] | – | prevented |
